# Assay results taken from publication PMC3897169 (MedChemComm, 2013).
# Biological target: T1, L3MBTL3 (Homo sapiens, UniProt Q96JM7)
# T1 sequence (Q96JM7 225-555 limits assumed): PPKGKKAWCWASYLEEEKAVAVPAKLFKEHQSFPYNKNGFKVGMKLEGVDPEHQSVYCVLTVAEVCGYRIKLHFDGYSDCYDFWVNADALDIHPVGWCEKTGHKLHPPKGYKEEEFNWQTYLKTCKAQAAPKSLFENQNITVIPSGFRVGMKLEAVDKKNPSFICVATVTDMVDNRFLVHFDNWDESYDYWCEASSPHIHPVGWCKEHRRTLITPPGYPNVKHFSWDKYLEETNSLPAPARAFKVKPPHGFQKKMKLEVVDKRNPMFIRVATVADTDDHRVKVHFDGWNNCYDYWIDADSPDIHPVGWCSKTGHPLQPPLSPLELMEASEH
# Assay: AlphaScreen methylated histone peptide competition assay
# Type: binding
# Settings: compared with UNC2533; 12 and 13 after incubation time of 30 minutes
row,Fold drop in L3MBTL3 activity (AlphaScreen) relative to UNC2533,Compound
1,9 fold,c1cc(N2CCC(N3CCCCC3)CC2)ccc1CCN1CCCC1 [compound 2]
2,20 fold,c1cc(CN2CCCC2)ccc1CCN1CCCC1 [compound 7]
3,more than 30 fold,O=C(CCc1ccc(N2CCC(N3CCCC3)CC2)cc1)N1CCCC1 [compound 8]
4,about 5 fold,c1cc(N2CCC(N3CCCC3)CC2)ccc1N1CCC(N2CCCC2)CC1 [compound 10]
5,5 fold,N#CC1CCN(CCc2ccc(N3CCC(N4CCCC4)CC3)cc2)C1 (stereo not shown) [compound 12]
6,5 fold,O=C1CCN(CCc2ccc(N3CCC(N4CCCC4)CC3)cc2)C1 [compound 13]

# Biological target: T1, L3MBTL3
# Assay: Isothermal titration calorimetry
# Type: binding
# Settings: compared with UNC2533
row,Fold loss in L3MBTL3 activity by ITC relative to UNC2533 [fold],Compound
1,7,c1cc(N2CCC(N3CCCCC3)CC2)ccc1CCN1CCCC1 [compound 2]
